Experimental data reported in paper PMC8244865, “Recruitment of phospholipase Cγ1 to the non-structural membrane protein pK15 of Kaposi Sarcoma-associated herpesvirus promotes its Src-dependent phosphorylation” (PLoS Pathogens, 2021).

Tests used:
[1] = system: PLCγ1 tSH2 domain (Src-mediated phosphorylation, Y^783); assay: in vitro Src kinase assay, 35mer-enhanced PLCγ1 tSH2 phosphorylation; format: biochemical; conditions: 1.25–5.0 μM 12mer, 2.5 μM 35mer, 0.085 μM Src, 45 min, 37°C; pY783 Western blot
Protocol: Fig 7 The pK15 CT domain enhances Src-mediated phosphorylation of the PLCγ1 tSH2 domain. (A) The purified PLCγ1 tSH2 domain (0.6 μM) was incubated with limiting amounts (0.085 μM) of recombinant purified Src kinase expressed in insect cells in the presence of increasing concentrations (1.25–5 μM) of phosphorylated peptides representing the last 12 (pK15 12mer) or 35 (pK15 35mer) amino acids of the pK15 cytoplasmic domain for 1 hour at 37°C. The reaction was stopped using SDS sample buffer and analysed by SDS-PAGE and Western blot using an antibody to the PLCγ1 pY^783 residue (top panel) or to the His tag on the recombinant tSH2 domain (bottom panel). […]
To test the impact of a pK15 CT fragment (pK15 CT^N2) or phosphorylated pK15 peptides representing the last 12 (DDLp[…]) or 35 ([…]pYEEVLFRN) amino acids of pK15 CT on the Src-mediated phosphorylation of the PLCγ1 tSH2 domain, GST-pK15CT^N2 was first phosphorylated with Src in vitro as described in the preceding paragraph. […] The reaction mix was then analysed by Western blot using an antibody to the phosphorylated Y^783 in the linker region of the PLCγ1 tSH2 domain and an antibody to the 5x His tag. […] Following a 45 min incubation at 37°C, the reaction mixture was analysed by Western blot as above.

PLCγ1 SA R586L or R694L = assay: GST-pulldown, PLCγ1 SA R586L or R694L; format: binding; conditions: phosphorylated, HEK 293T, versus WT
Protocol: Fig 3 Contribution of individual PLCγ1 SH2 domains to the interaction with phosphorylated pK15. The pK15 CT fused to GST, its Y^481F mutant, or GST alone were bound to glutathione beads, phosphorylated in vitro (+) or left unphosphorylated (-), and a GST pulldown was performed 32h after transfection into HEK-293T cells of expression vectors for S-tagged full-length PLCγ1 (FL) (A) or PLCγ1 SA (B) containing the indicated mutations. (C) pK15 CT WT, its Y^481F mutant or GST were bound to glutathione beads, phosphorylated in vitro (+) or left unphosphorylated (-), and used for a GST pulldown assay 32h after transfecting HEK 293T cells with expression vectors for S-tagged individual PLCγ1 nSH2 or cSH2 domains. […]
HEK293T cells were washed once with cold PBS 30 hours after transfection, lysed in IP buffer (50 mM Tris pH7.6, 60 mM NaCl, 6.25 mM EDTA, 1% (v/v) glycerol, 0.04% (v/v) NP-40) on ice for 30 minutes, sonicated shortly and cleared by centrifugation for 10 minutes at 20.000g, 4°C. […] Beads were then washed 5 times in 500 μl IP buffer (or for purified proteins IP buffer with 200 mM NaCl), suspended in 10 μl of 5x Laemmli sample buffer (60 mM Tris pH6.8, 24% (v/v) glycerol, 2% (v/v) SDS, 5% (v/v) β-mercaptoethanol, 0.01% Bromphenol Blue) and analysed by western blot.

Molecule | inhibition of 35mer-induced tSH2 phosphorylation [1] | binding of mutants (GST-pulldown) (PLCγ1 SA R586L or R694L)
DDLpYEEVLFPRN [pK15 12mer, phosphorylated peptide representing the last 12 amino acids of pK15 CT (DDLp…)] | could inhibit the increased PLCγ1 tSH2 phosphorylation induced by the 35mer peptide | –
pK15 CT^WT: pK15 cytoplasmic tail fused to GST at its N-terminal end, phosphorylated in vitro by Src (protein, tyrosine-phosphorylated in vitro by Src; sites not stated for this construct; left off: GST, N-terminal, kept) SQLLNEVELQEVNRDPPNVFGYASILVSGAEESREPSPQPDQSGMSILRVDGGSAFRIDTAQAATQPTDDLYEEVLFPRN | – | strongly reduced binding
